Laboratory results published in patent publication US5405847A, “4,5-dihydro-4-oxo-pyrrolo[1,2-a]quinoxalinones and corresponding aza analogs and a process for their preparation” (Asta Medica Aktiengesellschaft, priority 1992, dated 1995).
pIC50: −log10 of the molar value. Values belong to the compound of their own block, whether it stands above or below them.

What was measured:
phosphordiesterase = phosphordiesterase inhibition; format: biochemical
Source text: Examples for the compounds of Formula I

mast cells = assay: Allergically-induced histamine release from mast cells (rat); format: cell-based; conditions: Mast cell
Procedure: (§1) The acute toxicity of the compounds of the invention in the mouse (expressed by the LD 50 mg/kg; method after Miller and Tainter: Proc. Soc. Exper. Biol. a. Med. 57 (1944) 261) is for example above 1000 mg/kg in oral application. More detailed information on the previously mentioned test models. The figures cited relate to the compounds of the invention, in particular the compounds according to Example I.
1. Allergically-induced histamine release from mast cells (rat)

[1] = tested on: Asthma-induced by domestic dust mites; assay: Asthma induced by domestic dust mites (rabbits); format: in vivo; conditions: 10 mg/ml as aerosol for 2 minutes
Procedure: as §1
2. Asthma-induced by domestic dust mites (rabbits)
Lit.: J. Allergy Clin. Immunol. 87, 1991, p. 312 Administration/dosage: 10 mg/ml as aerosol for 2 minutes

[2] = tested on: Ovalbumin-induced asthmatic late phase eosinophilia in the lung; assay: Ovalbumin-induced asthmatic late phase eosinophilia in the lung (guinea pigs); format: in vivo
Procedure: as §1
1. Ovalbumin-induced asthmatic late phase eosinophilia in the lung (guinea pigs)

[3] = tested on: Allergic bronchoconstriction; assay: Allergic bronchoconstriction according to Konzett-Rossler (rat); format: in vivo; conditions: iv
Procedure: as §1
3. Allergic bronchoconstriction according to Konzett-Rossler (rat)
Lit.: Naunyn-Schmiedeb. Arch. Exp. Pathol. Pharmakol. 195, 1940, p. 71-74

monocytes = assay: Lipopolysaccharide-induced interleucin-1 production of monocytes (man); format: cell-based; conditions: Homo sapiens, Monocyte
Procedure: as §1
2. Lipopolysaccharide-induced interleucin-1 production of monocytes (man)

5-Lipoxygenase = target: T1, 5-Lipoxygenase (Rattus norvegicus, UniProt P12527); assay: 5-Lipoxygenase inhibition in peritoneal macrophages (rat); format: cell-based
T1 construct: endogenous in cells; host or cells: rat peritoneal macrophages
T1 sequence (P12527 1-673): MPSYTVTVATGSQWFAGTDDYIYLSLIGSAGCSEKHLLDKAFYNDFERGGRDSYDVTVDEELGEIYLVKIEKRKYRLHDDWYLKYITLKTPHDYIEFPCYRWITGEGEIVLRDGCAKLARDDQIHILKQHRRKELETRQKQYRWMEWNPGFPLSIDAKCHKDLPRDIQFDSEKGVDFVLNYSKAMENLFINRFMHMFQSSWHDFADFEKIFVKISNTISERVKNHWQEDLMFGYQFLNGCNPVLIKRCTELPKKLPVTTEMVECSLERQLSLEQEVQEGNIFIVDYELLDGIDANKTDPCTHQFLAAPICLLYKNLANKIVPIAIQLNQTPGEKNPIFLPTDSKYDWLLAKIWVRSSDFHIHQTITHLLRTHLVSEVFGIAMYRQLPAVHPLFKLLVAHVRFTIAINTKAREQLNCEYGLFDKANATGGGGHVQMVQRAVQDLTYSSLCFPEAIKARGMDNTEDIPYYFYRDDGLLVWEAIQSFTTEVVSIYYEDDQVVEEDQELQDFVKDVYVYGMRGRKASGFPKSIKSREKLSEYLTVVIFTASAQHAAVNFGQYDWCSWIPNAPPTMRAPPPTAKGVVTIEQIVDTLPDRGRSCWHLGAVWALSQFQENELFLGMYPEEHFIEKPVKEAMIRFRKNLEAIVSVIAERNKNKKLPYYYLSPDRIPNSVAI
Procedure: as §1
4. 5-Lipoxygenase inhibition in peritoneal macrophages (rat)

alveolar macrophages = assay: Platelet-activating factor (Paf)-induced oxygen radical release from alveolar macrophages (guinea pig); format: cell-based; conditions: Cavia porcellus, Macrophage
Procedure: as §1
3. Platelet-activating factor (Paf)-induced oxygen radical release from alveolar macrophages (guinea pig)

- pIC50 (phosphordiesterase): 5.13
Structure (SMILES): CN(C(=O)CCCCOc1ccc2[nH]c(=O)c3cccn3c2n1)C1CCCCC1 [D 20169]

- pIC50 (phosphordiesterase): 4.82
Structure (SMILES): CNC(=O)CCCOc1ccc2[nH]c(=O)c3cccn3c2n1 [Example 98]

Structure (SMILES): O=c1[nH]c2ccc(O)nc2n2cccc12 [Example I, 4,5-Dihydro-8-hydroxy-4-oxo-pyrido[3,2-e]pyrrolo[1,2-a]pyrazine]
- pIC50 (mast cells): 6.15
- Asthmatic late phase: inhibition [1]: 51%
- Bronchial hyperreactivity: inhibition [1]: 51%
- Bronchoconstriction: inhibition [1]: 49%
- inhibition of asthmatic late phase eosinophilia in the lung ([2]; 5 mg/kg/i.p.): 67%
- inhibition of asthmatic late phase eosinophilia in the lung ([2]; 10 mg/kg/i.p.): 98%
- pIC50 (phosphordiesterase): 4.49
- ED50 [3]: 0.5 mg/kg
- pIC50 (monocytes): 5.35
- pIC50 (5-Lipoxygenase): 4.92
- pIC50 (alveolar macrophages): 5.21
